Several values for one entry are separate records, joined by “and”; a condition that tells them apart may be missing. Identical values can stand only once.
Assays:
[1] = system: cytochrome P450 (CYP) isoenzymes 1A1/2 and 2B1/2; test: Induction of cytochrome P450 isoenzymes in rats; settings: female rats but not males
[2] = Excretion of radioactivity; settings: all species
[3] = Phase 2A study (Magnolia) in women with postpartum depression: ganaxolone plasma concentrations / pharmacokinetics; settings: for GNX Concentration: individual subjects, listed as GNX; for concentration at 12 h / concentration at 24 h / concentration at 48 h / concentration at 24 hr / concentration at 48 hr / concentration at 12 hr: female, human, plasma, intravenous, Mean average GNX Concentration
Protocol: Approximately 200 women with PPD 18 to 45 years of age are screened to randomize up to 100 subjects across up to 6 cohorts. Approximately 10-30 subjects are randomized into each cohort. Randomized subjects receive the investigational product (IP), ganaxolone or matching placebo in a 1:1 ratio. In Cohorts 1-5 the IP is administered intravenously over 60 hours. In Cohort 6 the dosing is initiated with a 6-hour intravenous (IV) infusion followed by oral dosing for 28 days plus 3-day taper.
Ganaxolone is infused at a rate of 4 mg/hr (16 ml/h of ganaxolone 0.25 mg/ml solution) for 48 hours and then, to minimize any risks for withdrawal or rebound of anxiety and depression symptoms, at a rate of 2 mg/hr for the next 12 hours. The infusion is stopped at 60 hours. Total of 9 subjects are dosed for this cohort.
Ganaxolone is infused at a rate of 8 mg/hr (16 ml/h of ganaxolone 0.5 mg/ml solution) for 48 hours and then at a rate of 4 mg/hr for the next 12 hours. This dose is approximately double the expected plasma exposure as compared to Cohort 1 at steady state (Cohort 2 expected plasma concentration ˜100-120 ng/mL). The infusion is stopped at 60 hours.
Twelve mg bolus of ganaxolone is initially given over 2 minutes followed by ganaxolone infusion at a rate of 12 mg/hr (24 ml/h of ganaxolone 0.5 mg/ml solution) for 48 hours. The rate is then reduced to 6 mg/hr for the next 12 hours, which is done to minimize any risks for withdrawal or rebound of anxiety and depression symptoms. The infusion is stopped at 60 hours.
In this cohort dosing is initiated with ganaxolone infusion at a rate of 20 mg/hr (40 ml/h of ganaxolone 0.5 mg/ml solution or matching placebo) for 6 hours followed by ganaxolone 900 mg (four 225 mg capsules per dose) or matching placebo capsules given orally at dinner time for 28 days followed by a 3-day taper (three, two, and one 225 mg capsule(s) per day, respectively).
This initial infusion is targeted to provide a fast onset of antidepressant activity by delivery of rapid plasma exposures to ganaxolone. Then, at dinner time of Day 1 the subjects take their first oral dose of ganaxolone 900 mg (four 225 mg capsules) or matching placebo (4 capsules). […] In previous studies, ganaxolone has been given up to a daily dose of 2000 mg, and at single doses of 1000 mg.
Six samples are collected for pharmacokinetic analysis in Cohorts 1-5 and 12 samples in Cohort 6. […] Seven samples are collected during the inpatient phase of Cohort 6 (including 6 samples on Day 1) followed by collection of 5 samples during the outpatient phase during the study visits for a total of 12 samples in Cohort 6.

With `CC(=O)[C@H]1CC[C@H]2[C@@H]3CC[C@H]4C[C@](C)(O)CC[C@]4(C)[C@H]3CC[C@]12C` [ganaxolone, 3α-hydroxy-3β-methyl-5α-pregnan-20-one] the “Induction of CYP isoenzymes 1A1/2 and 2B1/2” value [1] was “induces”, the “Excreted radioactivity via faeces” value [2] was over 70% and the “Targeted ganaxolone plasma concentration at steady state (Css)” value ([3]; Cohort 1, infusion rate 4 mg/hr, estimated target) was 52 ng/mL. The “GNX Concentration” value ([3]; Cohort 1: IV 4 mg/hr for 48 h then 2 mg/hr for 12 h, time 12 hr) was 61.6 ng/mL, the “GNX Concentration” value ([3]; Cohort 1: IV 4 mg/hr for 48 h then 2 mg/hr for 12 h, time 24 hr) was 59 ng/mL and the “Expected plasma concentration at steady state” value ([3]; Cohort 2, 8 mg/hr) was 100 to 120 ng/mL. For the same compound, the “GNX Concentration” value ([3]; Cohort 2: IV 8 mg/hr for 48 h then 4 mg/hr for 12 h, time 12 hr) was 107 ng/mL (2×) and 70.8 ng/mL and 111 ng/mL and 150 ng/mL and 115 ng/mL and 63.3 ng/mL and 69.3 ng/mL and 116 ng/mL and 49.5 ng/mL and 146 ng/mL and 183 ng/mL and 140 ng/mL and 71.5 ng/mL and 77.6 ng/mL, the “GNX Concentration” value ([3]; Cohort 2: IV 8 mg/hr for 48 h then 4 mg/hr for 12 h, time 24 hr) was 125 ng/mL and 92 ng/mL and 140 ng/mL and 45.5 ng/mL and 75.7 ng/mL and 106 ng/mL and 96.5 ng/mL and 1590* ng/mL and 142 ng/mL and 80.6 ng/mL and 175 ng/mL and 174 ng/mL and 162 ng/mL and 89.3 ng/mL and 26100* ng/mL and the “GNX Concentration” value ([3]; Cohort 2: IV 8 mg/hr for 48 h then 4 mg/hr for 12 h, time 48 hr) was 120 ng/mL (2×) and 136 ng/mL and 102 ng/mL and 197 ng/mL and 92 ng/mL and 77.8 ng/mL and 73.9 ng/mL and 118 ng/mL and 73.1 ng/mL and 131 ng/mL and 298 ng/mL and 132 ng/mL and 93.6 ng/mL and 7390* ng/mL. The “GNX Concentration” value ([3]; Cohort 2: IV 8 mg/hr for 48 h then 4 mg/hr for 12 h, time 72 hr) was 27.1 ng/mL and 26.4 ng/mL and 30.1 ng/mL and 28.2 ng/mL and 11.9 ng/mL and 23.9 ng/mL and 23.1 ng/mL and 26.8 ng/mL and 25.6 ng/mL and 19.4 ng/mL and 46.2 ng/mL and 26.9 ng/mL and 21.5 ng/mL and 18.1 ng/mL and 27.5 ng/mL, the “Expected peak plasma concentrations during initial 2-minute bolus” value ([3]; Cohort 3, 12 mg bolus over 2 minutes) was “up to 300 ng/ml” and the “GNX Concentration” value ([3]; Cohort 3: 12 mg bolus, IV 12 mg/hr for 48 h then 6 mg/hr for 12 h, time 12 hr) was 137 ng/mL and 100 ng/mL and 106 ng/mL and 118 ng/mL and 138 ng/mL and 230 ng/mL and 126 ng/mL and 204 ng/mL and 61.1 ng/mL. For the same compound, the “GNX Concentration” value ([3]; Cohort 3: 12 mg bolus, IV 12 mg/hr for 48 h then 6 mg/hr for 12 h, time 24 hr) was 164 ng/mL and 125 ng/mL and 148 ng/mL and 163 ng/mL and 165 ng/mL and 254 ng/mL and 144 ng/mL and 250 ng/mL and 56 ng/mL and 16 ng/mL, the “GNX Concentration” value ([3]; Cohort 3: 12 mg bolus, IV 12 mg/hr for 48 h then 6 mg/hr for 12 h, time 48 hr) was 207 ng/mL and 146 ng/mL and 212 ng/mL and 66.4 ng/mL and 211 ng/mL and 213 ng/mL and 4160* ng/mL and 209 ng/mL and 85 ng/mL and the “GNX Concentration” value ([3]; Cohort 3: 12 mg bolus, IV 12 mg/hr for 48 h then 6 mg/hr for 12 h, time 72 hr) was 49.3 ng/mL and 26.1 ng/mL and 30 ng/mL and 46.2 ng/mL and 44.6 ng/mL and 42.8 ng/mL and 30.2 ng/mL and 31.7 ng/mL and 17.5 ng/mL and 15.2 ng/mL. The concentration at 12 h ([3]; 86 μg/kg/hr, calculated for dose 86 μg/kg/hr, time 12 hr) was 81.4 ng/mL, the concentration at 24 h ([3]; 86 μg/kg/hr, calculated for dose 86 μg/kg/hr, time 24 hr) was 91.2 ng/mL and the concentration at 48 h ([3]; 86 μg/kg/hr, calculated for dose 86 μg/kg/hr, time 48 hr) was 100 ng/mL. For the same compound, the concentration at 12 h ([3]; 150 μg/kg/hr, calculated for dose 150 μg/kg/hr, time 12 hr) was 142 ng/mL, the concentration at 24 hr ([3]; 150 μg/kg/hr, calculated for dose 150 μg/kg/hr, time 24 hr) was 159 ng/mL and the concentration at 48 hr ([3]; 150 μg/kg/hr, calculated for dose 150 μg/kg/hr, time 48 hr) was 175 ng/mL. The concentration at 12 hr ([3]; 160 μg/kg/hr, calculated for dose 160 μg/kg/hr, time 12 hr) was 151 ng/mL, the concentration at 24 hr ([3]; 160 μg/kg/hr, calculated for dose 160 μg/kg/hr, time 24 hr) was 170 ng/mL and the concentration at 48 hr ([3]; 160 μg/kg/hr, calculated for dose 160 μg/kg/hr, time 48 hr) was 187 ng/mL. For the same compound, the concentration at 12 hr ([3]; 170 μg/kg/hr, calculated for dose 170 μg/kg/hr, time 12 hr) was 161 ng/mL, the concentration at 24 hr ([3]; 170 μg/kg/hr, calculated for dose 170 μg/kg/hr, time 24 hr) was 180 ng/mL and the concentration at 48 hr ([3]; 170 μg/kg/hr, calculated for dose 170 μg/kg/hr, time 48 hr) was 199 ng/mL. It also gave a concentration at 12 h ([3]; 180 μg/kg/hr, calculated for dose 180 μg/kg/hr, time 12 hr) of 170 ng/mL, a concentration at 24 h ([3]; 180 μg/kg/hr, calculated for dose 180 μg/kg/hr, time 24 hr) of 191 ng/mL and a concentration at 48 h ([3]; 180 μg/kg/hr, calculated for dose 180 μg/kg/hr, time 48 hr) of 210 ng/mL. For the same compound, the concentration at 12 h ([3]; 190 μg/kg/hr, calculated for dose 190 μg/kg/hr, time 12 hr) was 180 ng/mL, the concentration at 24 h ([3]; 190 μg/kg/hr, calculated for dose 190 μg/kg/hr, time 24 hr) was 202 ng/mL and the concentration at 48 h ([3]; 190 μg/kg/hr, calculated for dose 190 μg/kg/hr, time 48 hr) was 222 ng/mL. It also gave a concentration at 12 h ([3]; 200 μg/kg/hr, calculated for dose 200 μg/kg/hr, time 12 hr) of 189 ng/mL, a concentration at 24 h ([3]; 200 μg/kg/hr, calculated for dose 200 μg/kg/hr, time 24 hr) of 212 ng/mL and a concentration at 48 h ([3]; 200 μg/kg/hr, calculated for dose 200 μg/kg/hr, time 48 hr) of 234 ng/mL. For the same compound, the concentration at 12 h ([3]; 210 μg/kg/hr, calculated for dose 210 μg/kg/hr, time 12 hr) was 199 ng/mL, the concentration at 24 h ([3]; 210 μg/kg/hr, calculated for dose 210 μg/kg/hr, time 24 hr) was 223 ng/mL and the concentration at 48 h ([3]; 210 μg/kg/hr, calculated for dose 210 μg/kg/hr, time 48 hr) was 246 ng/mL. For the same compound, the concentration at 12 h ([3]; 220 μg/kg/hr, calculated for dose 220 μg/kg/hr, time 12 hr) was 208 ng/mL, the concentration at 24 h ([3]; 220 μg/kg/hr, calculated for dose 220 μg/kg/hr, time 24 hr) was 233 ng/mL and the concentration at 48 h ([3]; 220 μg/kg/hr, calculated for dose 220 μg/kg/hr, time 48 hr) was 257 ng/mL. The concentration at 12 h ([3]; 260 μg/kg/hr, calculated for dose 260 μg/kg/hr, time 12 hr) was 246 ng/mL.

Source: US11266662B2, “Ganaxolone for use in prophylaxis and treatment of postpartum depression” (Marinus Pharmaceuticals, Inc., priority 2018, dated 2022)
